These results are taken from patent EP0774455A1, “Excitatory amino acid receptor antagonists” (ELI LILLY AND COMPANY, priority 1995, dated 1997).

The structures appear in SMILES notation. pIC50: −log10 of the molar value.

A word on the pIC50: it is the negative decadic logarithm of the IC50, by convention in mol/L. Higher therefore signals a small IC50.

Assay [1] has as its system mouse. The assay is described as follows: mouse elevated plus maze model. It counts as in vivo.
For assay [2], the system named is mouse. In words: mouse conditioned active avoidance response model. It is filed as in vivo. From the text:
(Pfeiffer & Jenney, Ann. N.Y. Acad. Sci., 66:[…], 1957; Maffii, J. Pharm. Pharmacol., 11: 129-139, 1959; Cook & Weidley, Ann; N.Y. Acad. Sci., 66: […], 1957; Janke, Handbook of Experimental Pharmacology, Vol. 55/I, New York: Plenum Press, 1978).

In assay [3] the test system is metabotropic glutamate receptors. The assay is described as follows: selective displacement of 1S,3R-ACPD-sensitive [3H]glutamate binding to rat brain cell membranes (crude membranes of rat forebrain). How it is done: The binding of [^3H]glutamate was conducted with crude membranes of rat forebrain as described by Schoepp and True. Schoepp and True, Neuroscience Lett., 145, 100-104 (1992) and Wright et al., J. Neurochemisty 63: 938-945 (1994).

In the case of `Cc1cccc(C[C@@H]2C[C@H]3[C@H](C(=O)O)[C@H]3[C@]2(N)C(=O)O)c1` (racemic) [Example 4, 1SR,2SR,3SR,5RS,6SR-Amino-3-((3-methyl)benzyl)bicyclo[3.1.0]hexane-2,6-dicarboxylic acid], the anxiolytic effect result in assay [1] is reported as “anxiolytic effect”.

For `N[C@@]1(C(=O)O)[C@H](Cc2ccc(F)c(F)c2F)C[C@H]2[C@H](C(=O)O)[C@H]21` (racemic) [Example 25, 1SR,2SR,3SR,5RS,6SR-2-Amino-3-((2,3,4-trifluoro)-benzyl)bicyclo[3.1.0]hexane-2,6-dicarboxylic acid], in assay [2], the neuroleptic properties entry is listed as “neuroleptic properties”.

In assay [3], `NC1(C(=O)O)C(CCCc2ccccc2)CC2C(C(=O)O)C21` (stereo not drawn) [Example 1, Mixture of 1SR,2SR,3RS,5RS,6SR-2-amino-3-(3-phenylpropyl)bicyclo[3.1.0]-hexane-2,6-dicarboxylic acid and 1SR, 2RS, 3RS, 5RS, 6SR-2-amino-3-(3-phenylpropyl)bicyclo[3.1.0]hexane-2,6-dicarboxylic acid] showed a pIC50 of 6.49.
